Legend:
Assay in all cases: Kinase selectivity, DiscoverX scanMAX Kinase assay panel (% control)
Type in all cases: binding
[1] = target: T1, kinases of the scanMAX Kinase assay panel (Homo sapiens, UniProt Q6P3R8); conditions: NEK5; 1 uM
T1 construct: purchased DiscoverX Co. (contract measurement) scanMAX Kinase assay panel
T1 sequence (Q6P3R8 1-708): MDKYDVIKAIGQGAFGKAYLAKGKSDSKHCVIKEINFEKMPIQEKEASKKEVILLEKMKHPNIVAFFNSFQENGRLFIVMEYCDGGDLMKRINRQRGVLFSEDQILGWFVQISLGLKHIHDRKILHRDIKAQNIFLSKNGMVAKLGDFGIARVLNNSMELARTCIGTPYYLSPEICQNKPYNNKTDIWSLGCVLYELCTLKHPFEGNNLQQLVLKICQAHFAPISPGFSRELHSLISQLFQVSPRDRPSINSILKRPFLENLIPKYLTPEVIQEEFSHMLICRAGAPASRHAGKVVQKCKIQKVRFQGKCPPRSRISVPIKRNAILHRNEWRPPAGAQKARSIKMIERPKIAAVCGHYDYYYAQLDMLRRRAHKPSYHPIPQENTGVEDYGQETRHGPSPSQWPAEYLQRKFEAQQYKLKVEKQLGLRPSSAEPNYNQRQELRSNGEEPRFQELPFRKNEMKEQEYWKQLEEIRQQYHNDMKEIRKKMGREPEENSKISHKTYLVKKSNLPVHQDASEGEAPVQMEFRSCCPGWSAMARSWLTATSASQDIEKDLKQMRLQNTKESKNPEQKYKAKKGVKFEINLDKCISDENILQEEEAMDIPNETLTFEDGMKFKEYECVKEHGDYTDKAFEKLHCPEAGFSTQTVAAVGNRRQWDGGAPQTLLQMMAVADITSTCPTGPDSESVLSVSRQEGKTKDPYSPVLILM
Outline: (§1)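 Single-point screen, 1 uM cpd in DMSO. % ctrl = (cpd − pos ctrl)/(neg ctrl − pos ctrl)×100; pos ctrl = 0%, DMSO neg ctrl = 100%. Hit cutoff <35%.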

[2] = target: T2, kinases of the scanMAX Kinase assay panel (Homo sapiens, UniProt P36888, D835H); conditions: FLT3(D835H); 1 uM
T2 construct: purchased DiscoverX Co. (contract measurement) scanMAX Kinase assay panel
T2 sequence (P36888 27-993 D835H): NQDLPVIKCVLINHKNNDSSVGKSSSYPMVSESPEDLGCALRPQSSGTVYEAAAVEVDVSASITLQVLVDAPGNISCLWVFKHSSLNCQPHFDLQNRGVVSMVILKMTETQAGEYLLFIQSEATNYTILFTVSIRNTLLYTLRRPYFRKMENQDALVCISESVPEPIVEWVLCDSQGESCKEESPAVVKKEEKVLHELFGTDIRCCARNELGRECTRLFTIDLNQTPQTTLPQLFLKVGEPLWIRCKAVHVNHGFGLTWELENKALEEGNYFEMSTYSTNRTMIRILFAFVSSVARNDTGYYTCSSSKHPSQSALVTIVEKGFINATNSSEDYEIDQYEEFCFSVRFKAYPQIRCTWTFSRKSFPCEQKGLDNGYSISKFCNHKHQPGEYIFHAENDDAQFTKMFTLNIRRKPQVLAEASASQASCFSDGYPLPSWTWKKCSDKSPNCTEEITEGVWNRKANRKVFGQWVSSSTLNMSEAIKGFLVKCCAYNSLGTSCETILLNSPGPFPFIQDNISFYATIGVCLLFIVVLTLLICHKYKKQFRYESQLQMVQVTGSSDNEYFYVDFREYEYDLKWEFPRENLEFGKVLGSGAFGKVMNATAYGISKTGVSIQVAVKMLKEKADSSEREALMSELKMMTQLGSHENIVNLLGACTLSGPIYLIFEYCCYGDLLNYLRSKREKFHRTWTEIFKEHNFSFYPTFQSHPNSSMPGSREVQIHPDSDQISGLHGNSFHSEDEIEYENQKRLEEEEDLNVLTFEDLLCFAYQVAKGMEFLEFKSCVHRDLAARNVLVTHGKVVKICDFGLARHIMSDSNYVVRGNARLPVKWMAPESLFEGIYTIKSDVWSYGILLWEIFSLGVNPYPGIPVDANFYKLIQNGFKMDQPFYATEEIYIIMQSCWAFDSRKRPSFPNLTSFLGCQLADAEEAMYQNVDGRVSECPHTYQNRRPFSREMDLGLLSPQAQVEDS
Outline: as §1

[3] = target: T3, kinases of the scanMAX Kinase assay panel (Homo sapiens, UniProt P53355); conditions: DAPK1; 1 uM
T3 construct: purchased DiscoverX Co. (contract measurement) scanMAX Kinase assay panel
Outline: as §1

[4] = target: T4, kinases of the scanMAX Kinase assay panel (Homo sapiens, UniProt O60285); conditions: ARK5; 1 uM
T4 construct: purchased DiscoverX Co. (contract measurement) scanMAX Kinase assay panel
T4 sequence (O60285 1-661): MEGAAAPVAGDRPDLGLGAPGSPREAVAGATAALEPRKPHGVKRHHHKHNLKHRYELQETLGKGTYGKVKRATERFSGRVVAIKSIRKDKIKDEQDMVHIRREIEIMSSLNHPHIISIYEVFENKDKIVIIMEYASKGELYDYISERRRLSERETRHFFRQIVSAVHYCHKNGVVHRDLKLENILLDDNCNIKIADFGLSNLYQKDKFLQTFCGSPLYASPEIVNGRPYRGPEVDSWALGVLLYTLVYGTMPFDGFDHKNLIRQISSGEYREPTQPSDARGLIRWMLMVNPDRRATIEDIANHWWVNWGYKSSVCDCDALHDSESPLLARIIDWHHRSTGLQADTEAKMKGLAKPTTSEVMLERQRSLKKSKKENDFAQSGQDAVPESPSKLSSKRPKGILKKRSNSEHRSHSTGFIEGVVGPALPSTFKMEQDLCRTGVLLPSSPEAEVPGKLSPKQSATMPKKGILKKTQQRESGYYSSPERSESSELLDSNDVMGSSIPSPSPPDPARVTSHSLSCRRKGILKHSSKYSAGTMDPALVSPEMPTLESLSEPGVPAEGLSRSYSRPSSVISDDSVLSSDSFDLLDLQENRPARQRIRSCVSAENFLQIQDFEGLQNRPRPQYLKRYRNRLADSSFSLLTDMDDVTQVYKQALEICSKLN
Outline: as §1

[5] = target: T5, kinases of the scanMAX Kinase assay panel (Homo sapiens, UniProt O75460); conditions: ERN1; 1 uM
T5 construct: purchased DiscoverX Co. (contract measurement) scanMAX Kinase assay panel
Outline: as §1

[6] = target: T6, kinases of the scanMAX Kinase assay panel (Homo sapiens, UniProt Q96GD4); conditions: AURKB; 1 uM
T6 construct: purchased DiscoverX Co. (contract measurement) scanMAX Kinase assay panel
Outline: as §1

T5 sequence (O75460 19-977): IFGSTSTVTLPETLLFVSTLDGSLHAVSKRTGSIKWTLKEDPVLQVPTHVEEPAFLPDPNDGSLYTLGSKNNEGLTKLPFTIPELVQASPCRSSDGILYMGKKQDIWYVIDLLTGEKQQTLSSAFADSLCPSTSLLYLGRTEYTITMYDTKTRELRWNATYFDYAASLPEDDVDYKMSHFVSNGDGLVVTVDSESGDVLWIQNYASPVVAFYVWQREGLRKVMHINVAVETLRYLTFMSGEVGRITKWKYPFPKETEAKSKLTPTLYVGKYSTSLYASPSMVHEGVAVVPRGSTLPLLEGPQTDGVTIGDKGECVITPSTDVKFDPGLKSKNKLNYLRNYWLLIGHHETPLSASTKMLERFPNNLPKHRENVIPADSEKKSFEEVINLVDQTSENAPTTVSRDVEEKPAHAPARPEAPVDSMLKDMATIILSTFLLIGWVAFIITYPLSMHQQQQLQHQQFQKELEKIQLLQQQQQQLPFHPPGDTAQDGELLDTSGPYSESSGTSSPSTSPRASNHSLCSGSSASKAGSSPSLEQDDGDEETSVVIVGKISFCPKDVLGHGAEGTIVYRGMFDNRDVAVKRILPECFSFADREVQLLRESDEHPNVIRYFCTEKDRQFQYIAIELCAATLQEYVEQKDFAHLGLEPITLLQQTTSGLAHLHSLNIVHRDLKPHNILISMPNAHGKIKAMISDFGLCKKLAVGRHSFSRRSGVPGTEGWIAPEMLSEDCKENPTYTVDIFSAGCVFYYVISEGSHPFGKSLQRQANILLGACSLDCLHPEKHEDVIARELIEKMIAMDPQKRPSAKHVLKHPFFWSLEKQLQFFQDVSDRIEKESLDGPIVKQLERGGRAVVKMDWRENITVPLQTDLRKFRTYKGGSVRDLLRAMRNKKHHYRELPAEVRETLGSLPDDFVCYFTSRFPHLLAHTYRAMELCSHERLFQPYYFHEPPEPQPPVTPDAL
T3 sequence (P53355 whole entry): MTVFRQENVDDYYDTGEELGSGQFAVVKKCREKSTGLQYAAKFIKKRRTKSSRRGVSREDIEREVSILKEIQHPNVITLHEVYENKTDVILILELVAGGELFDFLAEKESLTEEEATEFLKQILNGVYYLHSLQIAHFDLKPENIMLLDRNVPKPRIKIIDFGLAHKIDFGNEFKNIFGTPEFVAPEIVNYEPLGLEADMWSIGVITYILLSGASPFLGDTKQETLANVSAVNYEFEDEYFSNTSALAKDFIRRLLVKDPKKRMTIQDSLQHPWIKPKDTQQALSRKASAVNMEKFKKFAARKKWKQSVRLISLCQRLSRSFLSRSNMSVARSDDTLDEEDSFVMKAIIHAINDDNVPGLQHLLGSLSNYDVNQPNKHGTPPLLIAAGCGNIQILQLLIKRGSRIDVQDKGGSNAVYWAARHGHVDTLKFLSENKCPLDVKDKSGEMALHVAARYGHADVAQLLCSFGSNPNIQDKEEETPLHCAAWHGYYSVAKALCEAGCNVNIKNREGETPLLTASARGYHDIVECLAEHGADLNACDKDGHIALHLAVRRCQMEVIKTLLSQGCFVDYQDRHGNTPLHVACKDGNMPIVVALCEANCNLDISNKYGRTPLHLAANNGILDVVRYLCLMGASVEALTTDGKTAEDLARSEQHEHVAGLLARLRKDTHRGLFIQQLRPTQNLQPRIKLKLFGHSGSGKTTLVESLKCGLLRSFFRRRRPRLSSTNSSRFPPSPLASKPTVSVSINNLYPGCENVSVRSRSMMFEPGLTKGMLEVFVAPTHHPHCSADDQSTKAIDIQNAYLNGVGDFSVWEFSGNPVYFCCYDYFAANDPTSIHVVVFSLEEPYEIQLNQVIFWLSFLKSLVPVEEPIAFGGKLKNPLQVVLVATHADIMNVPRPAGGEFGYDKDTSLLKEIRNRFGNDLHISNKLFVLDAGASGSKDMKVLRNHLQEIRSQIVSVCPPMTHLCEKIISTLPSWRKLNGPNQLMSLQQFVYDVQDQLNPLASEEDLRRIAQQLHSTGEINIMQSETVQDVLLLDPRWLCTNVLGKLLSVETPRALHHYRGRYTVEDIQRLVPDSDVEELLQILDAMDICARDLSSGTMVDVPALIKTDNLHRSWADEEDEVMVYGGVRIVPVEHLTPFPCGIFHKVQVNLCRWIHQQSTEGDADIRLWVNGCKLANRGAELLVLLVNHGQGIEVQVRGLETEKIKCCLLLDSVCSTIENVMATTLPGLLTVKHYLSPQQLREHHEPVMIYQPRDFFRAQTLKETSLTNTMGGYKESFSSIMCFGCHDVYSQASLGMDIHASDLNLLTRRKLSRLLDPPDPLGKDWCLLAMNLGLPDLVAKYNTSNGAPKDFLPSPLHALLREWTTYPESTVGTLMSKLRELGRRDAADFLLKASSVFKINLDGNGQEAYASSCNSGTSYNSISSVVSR
T6 sequence (Q96GD4 whole entry): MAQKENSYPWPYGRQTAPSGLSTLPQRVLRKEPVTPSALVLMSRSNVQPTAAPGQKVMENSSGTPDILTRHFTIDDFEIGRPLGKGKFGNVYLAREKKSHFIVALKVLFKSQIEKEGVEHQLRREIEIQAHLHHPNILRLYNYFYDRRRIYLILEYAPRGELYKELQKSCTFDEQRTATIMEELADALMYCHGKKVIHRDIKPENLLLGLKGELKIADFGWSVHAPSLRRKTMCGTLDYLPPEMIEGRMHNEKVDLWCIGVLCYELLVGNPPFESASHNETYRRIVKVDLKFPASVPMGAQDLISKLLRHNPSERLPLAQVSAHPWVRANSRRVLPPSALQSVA

| Compound | remaining binding at 1 µM [1] | remaining binding at 1 µM [2] | remaining binding at 1 µM [3] | remaining binding at 1 µM [4] | remaining binding at 1 µM [5] | remaining binding at 1 µM [6] |
| --- | --- | --- | --- | --- | --- | --- |
| CCNc1nc(Nc2ccc(C(=O)N3CCC(N4CCOCC4)CC3)cc2OC)nc2[nH]cc(C(F)(F)F)c12 [Example 104, (4-((4-(ethylamino)-5-(trifluoromethyl)-7H-pyrrolo[2,3-d]pyrimidine-2-yl)amino)-3-methoxyphenyl)(4-morpholinopiperidine-1-yl)methanone] | 95% | 21% | 49% | 99% | 83% | 90% |
| CNc1nc(Nc2ccc(C(=O)N3CCOCC3)cc2OC)nc2[nH]cc(C#N)c12 [Example 1, 2-((2-methoxy-4-(morpholine-4-carbonyl)phenyl)amino)-4-(methylamino)-7H-pyrrolo[2,3-d]pyrimidine-5-carbonitrile] | 98% | 92% | 8.5% | 88% | 57% | 73% |
| CC1(Nc2nc(Nc3cnn([C@H]4CCN(C5COC5)C[C@@H]4F)c3Cl)nc3[nH]cc(C#N)c23)CC1 [Example 52, 2-((5-chloro-1-((3S,4S)-3-fluoro-1-(oxetane-3-yl)piperidine-4-yl)-1H-pyrazole-4-yl)amino)((1-methylcyclopropyl)amino)-7H-pyrrolo[2,3-d]pyrimidine-5-carbonitrile] | 99% | 0.1% | 12% | 2.5% | 28% | 14% |

Source: patent US11208412B2 (DAEGU-GYEONGBUK MEDICAL INNOVATION FOUNDATION, priority 2017, dated 2021)
